Test [1] has as its target T1, Them1 StarD (Them1 START domain) (Homo sapiens, UniProt Q8WXI4).
T1 sequence (Q8WXI4 339-594 isoform Q8WXI4-2): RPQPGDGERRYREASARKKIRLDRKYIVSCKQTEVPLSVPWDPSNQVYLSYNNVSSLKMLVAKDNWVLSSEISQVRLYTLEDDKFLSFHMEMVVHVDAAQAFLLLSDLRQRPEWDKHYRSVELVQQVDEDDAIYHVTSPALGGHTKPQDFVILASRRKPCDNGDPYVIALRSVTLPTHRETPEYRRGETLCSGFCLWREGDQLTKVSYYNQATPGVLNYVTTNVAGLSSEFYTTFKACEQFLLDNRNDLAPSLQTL
Put plainly: differential scanning fluorimetry, SYPRO orange. The note with it: 10 μM protein, 50 μM ligand, 2% ethanol. The format is binding.

The target of test [2] is T1, Them1 StarD (Them1 START domain). Kind of test: microscale thermophoresis, RED-tris-NTA labelled His-tagged StarD. Type of test: binding.

As for `CCCCCCCC/C=C\CCCCCCCC(=O)OC[C@@H](O)COP(=O)([O-])OCC[N+](C)(C)C` [18:1 LPC], the Tm decrease in test [1] is ~ 5 °C. In general, Kd refers to the constant that tells how readily two partners part at equilibrium. A higher Kd goes with lower affinity. Molecule `CCCCCCCCCCCCCC(=O)O` [myristic acid] returned a Kd in test [2] of 70.8 µM. In test [2], `CCCCCCCCCCCCCCCCCC(=O)O` [stearic acid] yielded a Kd of 9.5 µM.

In test [2], `CCCCCCCCCCCCCCCC(=O)O` [palmitic acid] came in with a Kd of 45.9 µM.

Values taken from article doi:10.1101/2020.02.18.954917v1 (biorxiv, 2020).
